Three compounds from patent US20230265098A1, “ALKYNE QUINAZOLINE DERIVATIVES AS INHIBITORS OF ERBB2” (EnLiven Therapeutics, Inc., priority 2020, published 2023) can be followed below.

Experiment [1] concerns the target T1, Ba/F3 ERBB2-P780_Y781insGSP (Homo sapiens, UniProt P04626, DUP778-780, cells depend on it).
T1 construct: Ba/F3 cell lines were engineered to express human ERBB2 or EGFR kinases, rendering the cells IL-3 independent
Kind of experiment: Cell viability assay (CellTiter Glo). As to conditions: 72 hours; 3000 cells per well, 96-well plates; read-out: Cell viability IC50, nM, Ba/F3 ERBB2-P780_Y781insGSP. The class given is cell-based, mouse. How it is done:
(§1) Cells were treated with compounds, and cell viability was measured as a metric of kinase inhibition.
(§2) The Ba/F3 cell line is IL-3-dependent mouse cell line derived from the C3H mouse strain. Ba/F3 cell lines were engineered to express human ERBB2 or EGFR kinases, rendering the cells IL-3 independent. The lines were generated via retroviral transduction utilizing a Moloney murine leukemia virus (MMLV) promoter, and constructs are stably integrated into the cell genome.
(§3) Similarly, Ba/F3 cell lines engineered to express EGFR, ERBB2, or ERBB2 mutants were grown, harvested, counted and seeded at 3000 cells per well in 96-well plates for the data sets shown in Tables B3-B4, and seeded at 300 cells per well in 384-well plates for the data set shown in Table B5. A subset of wells contained media only (low control, “LC”).
(§4) Table B2 provides the growth media and number of cells seeded per well for the each cell line.
(§5) Compounds were dissolved in DMSO and serially diluted. Serially-diluted compound or a DMSO only control (high control, “HC”) was added to the plated cells in each well. […] The final proportion of DMSO never exceeded 0.1%.
Plates were placed in a 37° C., 5% CO2 incubator for 72 hours. Plates were then removed from the incubator and equilibrated for 15 minutes at room temperature. 40 IA of CellTiter Glo reagent (Promega) was added to measure the relative level of metabolically active cells by quantifying intracellular ATP concentrations. Plates were incubated for 30 minutes at room temperature, and luminescence was measured. […] Graphical curves were fitted using a nonlinear regression model with a sigmoidal dose response.

A further experiment concerns the target T2, Ba/F3 EGFR wt (Homo sapiens, UniProt P00533).
T2 construct: Ba/F3 cell lines were engineered to express human ERBB2 or EGFR kinases, rendering the cells IL-3 independent
Kind of experiment: Cell viability assay (CellTiter Glo). The class given is cell-based, mouse. As to conditions: 72 hours; 3000 cells per well, 96-well plates; read-out: Cell viability IC50, nM, Ba/F3 EGFR wt. A digest of the protocol: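 Murine Ba/F3 cells made IL-3-independent by retroviral human EGFR or ERBB2 were seeded at 3000 or 300 cells per well and exposed to serially diluted compound (DMSO ≤0.1%) for 72 hours at 37° C, 5% CO2. CellTiter Glo luminescence was normalised to DMSO and media-only controls and fitted to a sigmoidal dose-response.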
Background: ATP-based viability assays read luminescence as a measure of living cells.

In the next experiment the target is ERBB2 (D769H) (Homo sapiens, UniProt P04626, D769H). Kind of experiment: Reaction Biology kinase activity assay (33P-ATP, HotSpot). Format: biochemical. As to conditions: final enzyme concentration 150 nM; 100 μM 33P-ATP; 20 min preincubation, 2 hours at 25° C. How it is done: (§6) Inhibition of kinase activity was assessed using a kinase activity assay (Anastassiadis, T. et al. Nat Biotechnol 2011 29: 1039-1045). In particular, substrate (poly Glu-Tyr sodium salt (Sigma Aldrich, cat #P7244)) was freshly prepared in reaction buffer (20 mM Hepes (pH 7.5), 10 mM MgCl2, 1 mM EGTA, 0.02% Brij35, 0.02 mg/ml BSA, 0.1 mM Na3VO4, 2 mM DTT, 1% DMSO). EGFR, ERBB2 or ERBB2 mutant kinases were added to the substrate solution and mixed at the final concentrations in Table B1, below. Compounds were dissolved in 100% DMSO and the resulting solutions were added to the kinase reaction mixture. The kinase reaction mixture was incubated with the compounds for 20 minutes at room temperature. 100 μM ^33P-ATP (Specific activity 10 μCi/μl) was then added to initiate the reaction. This mixture was incubated for 2 hours at 25° C.
(§7) Reactions were spotted onto P81 ion exchange filter paper (Whatman). Unbound phosphate was removed by extensive washing of filters in 0.75% phosphoric acid. Radioactivity was detected using a HotSpot, a proprietary technology of Reaction Biology Corporation (Anastassiadis, T. et al., Nat Biotechnol. 2011 29(11):1039-45). Kinase activity data were expressed as the percentage kinase activity remaining in test samples relative to vehicle only (i.e., DMSO only) control reactions. IC50 values and curve fits were obtained using Prism (GraphPad Software), using a nonlinear regression model with a sigmoidal dose response and are shown in Table B1.

A further experiment addresses ERBB2 (R896C) (Homo sapiens, UniProt P04626, R896C). The description is as above. Format: biochemical. As to conditions: final enzyme concentration 200 nM; 100 μM 33P-ATP; 20 min preincubation, 2 hours at 25° C. How it is done:
as §6, §7

Another experiment concerns the target ERBB2 (V777_G778insCG) (Homo sapiens, UniProt P04626, INS777CG). Described as above. The class given is biochemical. The conditions noted are these: final enzyme concentration 100 nM; 100 μM 33P-ATP; 20 min preincubation, 2 hours at 25° C. How it is done: as §6, §7
In another experiment the target is ERBB2 (P1170A) (Homo sapiens, UniProt P04626, P1170A). The experiment is described as above. The class given is biochemical. As to conditions: final enzyme concentration 20 nM; 100 μM 33P-ATP; 20 min preincubation, 2 hours at 25° C. How it is done:
as §6, §7

A further experiment addresses EGFR (Homo sapiens, UniProt P00533). The experiment is described as above. Format: biochemical. As to conditions: final enzyme concentration 3 nM; 100 μM 33P-ATP; 20 min preincubation, 2 hours at 25° C. How it is done: as §6, §7
The target of a further experiment is ERBB2 (V777L) (Homo sapiens, UniProt P04626, V777L). The description is as above. The class given is biochemical. As to conditions: final enzyme concentration 40 nM; 100 μM 33P-ATP; 20 min preincubation, 2 hours at 25° C. How it is done:
as §6, §7

For a further experiment, the target named is ERBB2 (D769Y) (Homo sapiens, UniProt P04626, D769Y). The experiment is described as above. The class given is biochemical. As to conditions: final enzyme concentration 15 nM; 100 μM 33P-ATP; 20 min preincubation, 2 hours at 25° C. How it is done: as §6, §7
The target of the next experiment is ERBB2/HER2 (Homo sapiens, UniProt P04626). Described as above. Format: biochemical. As to conditions: final enzyme concentration 50 nM; 100 μM 33P-ATP; 20 min preincubation, 2 hours at 25° C. How it is done:
as §6, §7

In another experiment the test system is A431 cells. Kind of experiment: Cell viability assay (CellTiter Glo). Format: cell-based. As to conditions: Homo sapiens, A-431; 72 hours; 1500 cells per well, 384-well; DMEM + 10% FBS. How it is done: as §1, §2, §3, §4, §5
(§8) Plates were placed in a 37° C., 5% CO2 incubator for 72 hours. Plates were then removed from the incubator and equilibrated for 15 minutes at room temperature. 40 IA of CellTiter Glo reagent (Promega) was added to measure the relative level of metabolically active cells by quantifying intracellular ATP concentrations. Plates were incubated for 30 minutes at room temperature, and luminescence was measured. Percent viability was normalized to a vehicle control only using the following formula: % viability=100×(LumSample−LumLC) (LumHC−LumLC). Graphical curves were fitted using a nonlinear regression model with a sigmoidal dose response.

For the next experiment, the system named is MDA-MB-175VII cells. Kind of experiment: Cell viability assay (CellTiter Glo). Format: cell-based. The conditions noted are these: Homo sapiens, 72 hours, 2000 cells per well, 384-well, RPMI + 10% FBS. How it is done: as §1, §2, §3, §4, §5, §8

T1 sequence (P04626 with tags, fused parts or gaps DUP778-780): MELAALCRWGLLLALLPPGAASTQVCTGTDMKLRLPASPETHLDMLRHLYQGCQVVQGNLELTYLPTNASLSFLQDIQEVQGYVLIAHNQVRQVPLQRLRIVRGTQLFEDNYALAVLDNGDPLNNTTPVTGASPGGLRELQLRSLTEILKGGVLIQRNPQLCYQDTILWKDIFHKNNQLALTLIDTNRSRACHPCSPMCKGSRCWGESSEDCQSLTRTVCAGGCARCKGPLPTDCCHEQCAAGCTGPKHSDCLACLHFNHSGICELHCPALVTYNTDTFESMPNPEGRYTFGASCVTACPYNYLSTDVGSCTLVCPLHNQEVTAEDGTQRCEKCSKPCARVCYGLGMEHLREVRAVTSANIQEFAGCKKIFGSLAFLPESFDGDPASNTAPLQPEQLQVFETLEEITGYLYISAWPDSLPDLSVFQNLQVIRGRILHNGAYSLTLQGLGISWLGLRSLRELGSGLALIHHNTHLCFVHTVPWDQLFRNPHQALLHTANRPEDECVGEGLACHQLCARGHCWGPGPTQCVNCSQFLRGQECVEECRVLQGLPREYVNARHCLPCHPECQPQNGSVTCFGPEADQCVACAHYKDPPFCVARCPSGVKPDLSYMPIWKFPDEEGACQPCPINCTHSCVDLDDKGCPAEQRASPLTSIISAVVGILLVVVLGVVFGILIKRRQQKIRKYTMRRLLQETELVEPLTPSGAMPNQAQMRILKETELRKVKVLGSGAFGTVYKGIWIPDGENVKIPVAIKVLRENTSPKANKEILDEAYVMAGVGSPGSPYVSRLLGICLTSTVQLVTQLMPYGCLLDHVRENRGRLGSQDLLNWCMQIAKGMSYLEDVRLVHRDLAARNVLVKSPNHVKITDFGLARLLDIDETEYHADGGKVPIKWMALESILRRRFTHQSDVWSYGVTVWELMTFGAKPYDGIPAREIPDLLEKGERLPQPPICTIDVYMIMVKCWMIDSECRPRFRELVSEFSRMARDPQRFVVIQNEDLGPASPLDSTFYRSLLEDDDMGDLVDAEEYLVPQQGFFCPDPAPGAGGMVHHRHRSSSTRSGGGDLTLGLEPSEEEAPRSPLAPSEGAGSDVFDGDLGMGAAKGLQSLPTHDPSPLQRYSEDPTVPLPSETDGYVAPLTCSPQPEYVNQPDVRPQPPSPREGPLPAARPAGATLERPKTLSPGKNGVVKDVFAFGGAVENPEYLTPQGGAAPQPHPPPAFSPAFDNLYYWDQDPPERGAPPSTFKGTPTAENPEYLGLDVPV
Chain of ERBB2/HER2 (P04626 23-1255): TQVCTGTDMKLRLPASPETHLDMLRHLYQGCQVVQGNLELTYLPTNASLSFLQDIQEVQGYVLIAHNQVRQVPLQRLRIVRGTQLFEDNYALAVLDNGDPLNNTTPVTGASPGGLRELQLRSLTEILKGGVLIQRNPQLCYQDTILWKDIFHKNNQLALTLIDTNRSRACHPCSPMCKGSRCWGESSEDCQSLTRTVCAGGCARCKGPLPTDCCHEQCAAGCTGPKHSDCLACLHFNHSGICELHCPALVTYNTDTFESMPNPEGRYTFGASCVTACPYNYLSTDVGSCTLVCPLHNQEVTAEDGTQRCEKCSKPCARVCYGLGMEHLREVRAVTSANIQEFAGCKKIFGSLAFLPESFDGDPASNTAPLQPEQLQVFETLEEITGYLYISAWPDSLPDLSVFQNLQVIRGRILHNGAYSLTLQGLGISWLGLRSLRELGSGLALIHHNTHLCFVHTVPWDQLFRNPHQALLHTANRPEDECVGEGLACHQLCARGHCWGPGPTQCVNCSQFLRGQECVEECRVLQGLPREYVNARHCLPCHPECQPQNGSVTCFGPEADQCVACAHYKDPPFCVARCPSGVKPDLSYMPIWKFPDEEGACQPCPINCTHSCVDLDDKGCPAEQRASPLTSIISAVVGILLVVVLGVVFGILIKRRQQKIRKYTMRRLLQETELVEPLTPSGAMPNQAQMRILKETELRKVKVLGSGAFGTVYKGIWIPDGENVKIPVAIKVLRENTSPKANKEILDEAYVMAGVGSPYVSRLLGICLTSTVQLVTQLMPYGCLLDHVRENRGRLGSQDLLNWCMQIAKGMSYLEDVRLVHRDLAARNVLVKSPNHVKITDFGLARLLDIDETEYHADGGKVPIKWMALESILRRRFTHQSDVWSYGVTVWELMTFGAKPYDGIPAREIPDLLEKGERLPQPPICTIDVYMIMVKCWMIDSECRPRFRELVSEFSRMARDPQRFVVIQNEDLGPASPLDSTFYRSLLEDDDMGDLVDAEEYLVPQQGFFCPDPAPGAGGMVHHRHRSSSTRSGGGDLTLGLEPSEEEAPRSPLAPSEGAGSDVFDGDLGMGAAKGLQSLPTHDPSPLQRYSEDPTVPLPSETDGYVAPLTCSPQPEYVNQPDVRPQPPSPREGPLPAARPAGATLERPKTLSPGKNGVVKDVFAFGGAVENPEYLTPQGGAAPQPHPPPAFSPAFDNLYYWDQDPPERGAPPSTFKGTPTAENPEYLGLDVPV
Chain of ERBB2 (V777L) (P04626 23-1255 V777L): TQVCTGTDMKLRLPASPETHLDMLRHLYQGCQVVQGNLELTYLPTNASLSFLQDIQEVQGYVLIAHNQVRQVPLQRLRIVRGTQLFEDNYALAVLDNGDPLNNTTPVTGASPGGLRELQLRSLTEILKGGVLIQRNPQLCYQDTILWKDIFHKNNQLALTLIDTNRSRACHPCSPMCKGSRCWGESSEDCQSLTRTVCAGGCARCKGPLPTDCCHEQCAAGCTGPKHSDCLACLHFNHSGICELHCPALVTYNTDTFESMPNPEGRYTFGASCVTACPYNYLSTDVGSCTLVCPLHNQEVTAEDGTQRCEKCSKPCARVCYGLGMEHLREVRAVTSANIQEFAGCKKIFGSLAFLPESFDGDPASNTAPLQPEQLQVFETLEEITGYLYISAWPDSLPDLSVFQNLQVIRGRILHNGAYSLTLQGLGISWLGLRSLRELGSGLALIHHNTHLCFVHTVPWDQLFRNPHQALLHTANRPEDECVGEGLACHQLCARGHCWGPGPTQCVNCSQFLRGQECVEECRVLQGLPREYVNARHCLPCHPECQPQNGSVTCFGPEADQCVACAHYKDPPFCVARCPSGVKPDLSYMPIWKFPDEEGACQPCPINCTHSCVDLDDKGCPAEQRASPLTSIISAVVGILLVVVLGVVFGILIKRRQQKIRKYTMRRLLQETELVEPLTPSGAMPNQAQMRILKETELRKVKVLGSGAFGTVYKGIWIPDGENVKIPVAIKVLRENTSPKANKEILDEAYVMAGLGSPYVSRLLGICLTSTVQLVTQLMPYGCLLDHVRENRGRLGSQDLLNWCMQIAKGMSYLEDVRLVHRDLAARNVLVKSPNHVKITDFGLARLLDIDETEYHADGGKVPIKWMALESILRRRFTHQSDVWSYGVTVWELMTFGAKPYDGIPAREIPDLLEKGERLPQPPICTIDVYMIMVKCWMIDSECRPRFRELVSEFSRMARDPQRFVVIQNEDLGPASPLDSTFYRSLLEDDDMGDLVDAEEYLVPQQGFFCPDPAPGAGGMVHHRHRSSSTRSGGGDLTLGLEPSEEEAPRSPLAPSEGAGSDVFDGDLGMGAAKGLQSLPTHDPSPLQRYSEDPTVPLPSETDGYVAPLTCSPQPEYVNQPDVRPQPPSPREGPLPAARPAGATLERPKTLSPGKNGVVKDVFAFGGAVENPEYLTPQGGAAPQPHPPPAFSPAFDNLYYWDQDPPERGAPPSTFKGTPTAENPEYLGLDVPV
Chain of EGFR (P00533 25-1210): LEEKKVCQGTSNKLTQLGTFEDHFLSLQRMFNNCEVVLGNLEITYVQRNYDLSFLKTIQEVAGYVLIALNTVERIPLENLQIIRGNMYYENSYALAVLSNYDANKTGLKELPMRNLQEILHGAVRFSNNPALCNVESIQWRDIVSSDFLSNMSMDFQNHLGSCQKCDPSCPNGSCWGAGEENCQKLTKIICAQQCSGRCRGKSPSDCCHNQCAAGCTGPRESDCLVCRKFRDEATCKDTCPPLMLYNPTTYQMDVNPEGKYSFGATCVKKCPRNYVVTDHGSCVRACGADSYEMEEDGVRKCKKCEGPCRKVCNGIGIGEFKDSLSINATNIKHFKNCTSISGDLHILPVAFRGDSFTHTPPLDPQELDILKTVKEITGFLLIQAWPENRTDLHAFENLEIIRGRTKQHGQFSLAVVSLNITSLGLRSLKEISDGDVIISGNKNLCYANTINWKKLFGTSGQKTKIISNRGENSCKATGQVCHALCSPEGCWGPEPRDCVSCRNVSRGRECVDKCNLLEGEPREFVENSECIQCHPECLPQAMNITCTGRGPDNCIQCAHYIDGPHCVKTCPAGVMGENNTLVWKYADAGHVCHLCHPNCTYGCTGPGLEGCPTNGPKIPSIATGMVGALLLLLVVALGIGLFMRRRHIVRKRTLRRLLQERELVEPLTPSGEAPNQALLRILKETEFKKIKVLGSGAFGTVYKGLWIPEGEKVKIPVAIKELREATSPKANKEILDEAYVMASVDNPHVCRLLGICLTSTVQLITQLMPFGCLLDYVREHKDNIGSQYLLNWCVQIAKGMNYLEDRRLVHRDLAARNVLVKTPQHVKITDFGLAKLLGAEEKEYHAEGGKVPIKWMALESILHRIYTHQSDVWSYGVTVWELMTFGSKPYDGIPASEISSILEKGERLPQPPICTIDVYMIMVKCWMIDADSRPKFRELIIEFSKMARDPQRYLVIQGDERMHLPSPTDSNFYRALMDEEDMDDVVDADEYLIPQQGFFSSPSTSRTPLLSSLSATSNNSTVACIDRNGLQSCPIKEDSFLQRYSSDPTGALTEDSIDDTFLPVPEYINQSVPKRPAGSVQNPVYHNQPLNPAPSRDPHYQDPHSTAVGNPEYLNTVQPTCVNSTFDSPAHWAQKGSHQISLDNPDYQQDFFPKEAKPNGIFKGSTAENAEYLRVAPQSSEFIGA

On to `CC#CC(=O)Nc1cc2c(Nc3ccc(Oc4ccn5ncnc5c4)c(C)c3)ncnc2cc1OCCN(C)C` [Compound 150, N-[7-[2-(dimethylamino)ethoxy]-4-[(3-methyl-4-[[1,2,4]triazolo[1,5-a]pyridin-7-yloxy]phenyl)amino]quinazolin-6-yl]but-2-ynamide], for which the GI50 in experiment [1] worked out at 2.63 nM.

As usually defined, the IC50 is the midpoint of a concentration-inhibition curve. In the case of `CC#CC(=O)Nc1ccc2ncnc(Nc3ccc(Oc4ccn5ncnc5c4)c(C)c3)c2c1` [Compound 1, N-[4-[(3-methyl-4-[[1,2,4]triazolo[1,5-a]pyridin-7-yloxy]phenyl)amino]quinazolin-6-yl]but-2-ynamide], the figures for the GI50 (on Ba/F3 EGFR wt; in experiment [1]) were 2750 nM and 0.65 nM, respectively. For the same compound, the IC50 against ERBB2 (D769H) was 1.04 nM; against ERBB2 (R896C), 2.29 nM; at ERBB2 (V777_G778insCG), 0.97 nM; at ERBB2 (P1170A), 0.68 nM; on EGFR it was 58 nM; against ERBB2 (V777L), 1.38 nM. The half-inhibitory concentration (IC50) at ERBB2 (D769Y) turned out to be 1.56 nM; at ERBB2/HER2 it was 0.49 nM; in the experiment on A431 cells it was 1730 nM; in the experiment with MDA-MB-175VII cells it was 9 nM.

As for `Cc1cc(Nc2ncnc3ccc(NC4=NC(C)(C)CO4)cc23)ccc1Oc1ccn2ncnc2c1` [Tucatinib, tucatinib, reference compound], the figures for the GI50 (on Ba/F3 EGFR wt; in [1]) were greater than 10000 nM and 25.3 nM, respectively. The IC50 stood at 5 nM on ERBB2 (D769H); 2.95 nM against ERBB2 (R896C); 4.43 nM at ERBB2 (V777_G778insCG); 3.99 nM against ERBB2 (P1170A); 954 nM on EGFR; 4.3 nM at ERBB2 (V777L). In addition, the IC50 at ERBB2 (D769Y) is 13.7 nM; at ERBB2/HER2, 3.07 nM; in the experiment on A431 cells, greater than 10000 nM; in the experiment on MDA-MB-175VII cells, 89 nM.
